Source: the supplement of paper PMC10307832

How the values were obtained:
Assay in all cases: relative viability (nuclei count vs DMSO), 5 days (fraction); higher = more cells survive
[1] = tested on: LU99A
How it was run: (§1)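 After 5 days of treatment, lung cancer cells in 1536-well plates were fixed and stained in a single step (final 0.05% Triton X-100, 1% formaldehyde, 1 ug/ml Hoechst) and their nuclei counted on 4× images. Treatment had been applied by pin tool the day after seeding as one drug alone or as a fixed anchor-drug dose with five library-drug doses (not always all listed) in √10 steps. Relative viability is the nuclei count of treated wells divided by that of vehicle wells, and values are medians of duplicate plates.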

[2] = tested on: LXF-289
How it was run: as §1

[3] = tested on: BEN
How it was run: as §1

[4] = tested on: NCI-H838
How it was run: as §1

[5] = tested on: NCI-H1651
How it was run: as §1

[6] = tested on: NCI-H596
How it was run: as §1

[7] = tested on: HCC-78
How it was run: as §1

[8] = tested on: NCI-H1355
How it was run: as §1

[9] = tested on: NCI-H2087
How it was run: as §1

[10] = tested on: NCI-H650
How it was run: as §1

[11] = tested on: NCI-H1666
How it was run: as §1

[12] = tested on: ChaGo-K-1
How it was run: as §1

[13] = tested on: NCI-H1975
How it was run: as §1

[14] = tested on: PC-3 [JPC-3]
How it was run: as §1

[15] = tested on: NCI-H661
How it was run: as §1

[16] = tested on: LCLC-97TM1
How it was run: as §1

[17] = tested on: LC-2-ad
How it was run: as §1

CC(=O)O[C@@]12CO[C@@H]1C[C@H](O)[C@@]1(C)C(=O)[C@H](O)C3=C(C)[C@@H](OC(=O)[C@H](O)[C@@H](NC(=O)OC(C)(C)C)c4ccccc4)C[C@@](O)([C@@H](OC(=O)c4ccccc4)[C@H]21)C3(C)C [Docetaxel] + CC(C)C[C@H](NC(=O)[C@H](Cc1ccccc1)NC(=O)c1cnccn1)B(O)O [Bortezomib] (partner 0.002 µM)
relative viability ([1]; first compound 0.0002 µM): 1.01 | relative viability ([1]; first compound 0.000632 µM): 0.637 | relative viability ([1]; first compound 0.002 µM): 0.545 | relative viability ([1]; first compound 0.006325 µM): 0.282 | relative viability ([1]; first compound 0.02 µM): 0.221 | relative viability ([2]; first compound 0.0002 µM): 0.995 | relative viability ([2]; first compound 0.000632 µM): 0.81 | relative viability ([2]; first compound 0.002 µM): 0.594 | relative viability ([2]; first compound 0.006325 µM): 0.133 | relative viability ([2]; first compound 0.02 µM): 0.0991 | relative viability ([3]; first compound 0.0002 µM): 0.612 | relative viability ([3]; first compound 0.000632 µM): 0.644 | relative viability ([3]; first compound 0.002 µM): 0.341 | relative viability ([3]; first compound 0.006325 µM): 0.263 | relative viability ([3]; first compound 0.02 µM): 0.164 | relative viability ([4]; first compound 0.0002 µM): 0.795 | relative viability ([4]; first compound 0.000632 µM): 0.522 | relative viability ([4]; first compound 0.002 µM): 0.247 | relative viability ([4]; first compound 0.006325 µM): 0.154 | relative viability ([4]; first compound 0.02 µM): 0.0975 | relative viability ([5]; first compound 0.0002 µM): 0.802 | relative viability ([5]; first compound 0.000632 µM): 0.926 | relative viability ([5]; first compound 0.002 µM): 0.744 | relative viability ([5]; first compound 0.006325 µM): 0.22 | relative viability ([5]; first compound 0.02 µM): 0.137 | relative viability ([6]; first compound 0.0002 µM): 0.81 | relative viability ([6]; first compound 0.000632 µM): 1.15 | relative viability ([6]; first compound 0.002 µM): 0.812 | relative viability ([6]; first compound 0.006325 µM): 0.723 | relative viability ([6]; first compound 0.02 µM): 0.423 | relative viability ([7]; first compound 0.0002 µM): 0.581 | relative viability ([7]; first compound 0.000632 µM): 0.524 | relative viability ([7]; first compound 0.002 µM): 0.326 | relative viability ([7]; first compound 0.006325 µM): 0.487 | relative viability ([7]; first compound 0.02 µM): 0.27 | relative viability ([8]; first compound 0.0002 µM): 1.2 | relative viability ([8]; first compound 0.000632 µM): 1.14 | relative viability ([8]; first compound 0.002 µM): 0.673 | relative viability ([8]; first compound 0.006325 µM): 0.302 | relative viability ([8]; first compound 0.02 µM): 0.224 | relative viability ([9]; first compound 0.0002 µM): 0.701 | relative viability ([9]; first compound 0.000632 µM): 0.665 | relative viability ([9]; first compound 0.002 µM): 0.28 | relative viability ([9]; first compound 0.006325 µM): 0.224 | relative viability ([9]; first compound 0.02 µM): 0.142 | relative viability ([10]; first compound 0.0002 µM): 0.636 | relative viability ([10]; first compound 0.000632 µM): 0.425 | relative viability ([10]; first compound 0.002 µM): 0.309 | relative viability ([10]; first compound 0.006325 µM): 0.233 | relative viability ([10]; first compound 0.02 µM): 0.196 | relative viability ([11]; first compound 0.0002 µM): 0.582 | relative viability ([11]; first compound 0.000632 µM): 0.452 | relative viability ([11]; first compound 0.002 µM): 0.378 | relative viability ([11]; first compound 0.006325 µM): 0.249 | relative viability ([11]; first compound 0.02 µM): 0.205 | relative viability ([12]; first compound 0.0002 µM): 1 | relative viability ([12]; first compound 0.000632 µM): 0.542 | relative viability ([12]; first compound 0.002 µM): 0.487 | relative viability ([12]; first compound 0.006325 µM): 0.419 | relative viability ([12]; first compound 0.02 µM): 0.267 | relative viability ([13]; first compound 0.0002 µM): 0.366 | relative viability ([13]; first compound 0.000632 µM): 0.246 | relative viability ([13]; first compound 0.002 µM): 0.166 | relative viability ([13]; first compound 0.006325 µM): 0.15 | relative viability ([13]; first compound 0.02 µM): 0.141 | relative viability ([14]; first compound 0.0002 µM): 0.794 | relative viability ([14]; first compound 0.000632 µM): 0.959 | relative viability ([14]; first compound 0.002 µM): 0.735 | relative viability ([14]; first compound 0.006325 µM): 0.263 | relative viability ([14]; first compound 0.02 µM): 0.193 | relative viability ([15]; first compound 0.0002 µM): 0.702 | relative viability ([15]; first compound 0.000632 µM): 0.784 | relative viability ([15]; first compound 0.002 µM): 0.68 | relative viability ([15]; first compound 0.006325 µM): 0.634 | relative viability ([15]; first compound 0.02 µM): 0.224 | relative viability ([16]; first compound 0.0002 µM): 0.624 | relative viability ([16]; first compound 0.000632 µM): 0.125 | relative viability ([16]; first compound 0.002 µM): 0.106 | relative viability ([16]; first compound 0.006325 µM): 0.083 | relative viability ([16]; first compound 0.02 µM): 0.051 | relative viability ([17]; first compound 0.0002 µM): 0.702 | relative viability ([17]; first compound 0.002 µM): 0.125 | relative viability ([17]; first compound 0.006325 µM): 0.116 | relative viability ([17]; first compound 0.02 µM): 0.11

Cc1sc2c(c1C)C(c1ccc(Cl)cc1)=N[C@@H](CC(=O)OC(C)(C)C)c1nnc(C)n1-2 [JQ1] + CC(C)C[C@H](NC(=O)[C@H](Cc1ccccc1)NC(=O)c1cnccn1)B(O)O [Bortezomib] (partner 0.002 µM)
relative viability ([1]; first compound 0.04 µM): 1.32 | relative viability ([1]; first compound 0.1265 µM): 0.8 | relative viability ([1]; first compound 0.4 µM): 0.802 | relative viability ([1]; first compound 1.265 µM): 0.426 | relative viability ([1]; first compound 4 µM): 0.265 | relative viability ([2]; first compound 0.04 µM): 0.977 | relative viability ([2]; first compound 0.1265 µM): 0.887 | relative viability ([2]; first compound 0.4 µM): 0.865 | relative viability ([2]; first compound 1.265 µM): 0.894 | relative viability ([2]; first compound 4 µM): 0.719 | relative viability ([3]; first compound 0.04 µM): 0.627 | relative viability ([3]; first compound 0.1265 µM): 0.605 | relative viability ([3]; first compound 0.4 µM): 0.463 | relative viability ([3]; first compound 1.265 µM): 0.322 | relative viability ([3]; first compound 4 µM): 0.221 | relative viability ([4]; first compound 0.04 µM): 0.69 | relative viability ([4]; first compound 0.1265 µM): 0.426 | relative viability ([4]; first compound 0.4 µM): 0.31 | relative viability ([4]; first compound 1.265 µM): 0.208 | relative viability ([4]; first compound 4 µM): 0.154 | relative viability ([5]; first compound 0.04 µM): 0.919 | relative viability ([5]; first compound 0.1265 µM): 0.781 | relative viability ([5]; first compound 0.4 µM): 0.842 | relative viability ([5]; first compound 1.265 µM): 0.9 | relative viability ([5]; first compound 4 µM): 0.635 | relative viability ([6]; first compound 0.04 µM): 0.945 | relative viability ([6]; first compound 0.1265 µM): 0.781 | relative viability ([6]; first compound 0.4 µM): 0.955 | relative viability ([6]; first compound 1.265 µM): 0.673 | relative viability ([6]; first compound 4 µM): 0.344 | relative viability ([7]; first compound 0.04 µM): 0.53 | relative viability ([7]; first compound 0.1265 µM): 0.453 | relative viability ([7]; first compound 0.4 µM): 0.231 | relative viability ([7]; first compound 1.265 µM): 0.19 | relative viability ([7]; first compound 4 µM): 0.172 | relative viability ([8]; first compound 0.04 µM): 1.17 | relative viability ([8]; first compound 0.1265 µM): 1.07 | relative viability ([8]; first compound 0.4 µM): 1.05 | relative viability ([8]; first compound 1.265 µM): 0.86 | relative viability ([8]; first compound 4 µM): 0.669 | relative viability ([9]; first compound 0.04 µM): 0.832 | relative viability ([9]; first compound 0.4 µM): 0.943 | relative viability ([9]; first compound 1.265 µM): 0.553 | relative viability ([9]; first compound 4 µM): 0.416 | relative viability ([10]; first compound 0.04 µM): 0.742 | relative viability ([10]; first compound 0.1265 µM): 0.351 | relative viability ([10]; first compound 0.4 µM): 0.432 | relative viability ([10]; first compound 1.265 µM): 0.183 | relative viability ([10]; first compound 4 µM): 0.184 | relative viability ([11]; first compound 0.04 µM): 0.658 | relative viability ([11]; first compound 0.1265 µM): 0.698 | relative viability ([11]; first compound 0.4 µM): 0.543 | relative viability ([11]; first compound 1.265 µM): 0.428 | relative viability ([11]; first compound 4 µM): 0.443 | relative viability ([12]; first compound 0.04 µM): 1.09 | relative viability ([12]; first compound 0.4 µM): 1.06 | relative viability ([12]; first compound 1.265 µM): 0.493 | relative viability ([12]; first compound 4 µM): 0.373 | relative viability ([13]; first compound 0.04 µM): 0.355 | relative viability ([13]; first compound 0.1265 µM): 0.258 | relative viability ([13]; first compound 0.4 µM): 0.317 | relative viability ([13]; first compound 1.265 µM): 0.177 | relative viability ([13]; first compound 4 µM): 0.152 | relative viability ([14]; first compound 0.04 µM): 0.845 | relative viability ([14]; first compound 0.1265 µM): 0.81 | relative viability ([14]; first compound 0.4 µM): 0.977 | relative viability ([14]; first compound 1.265 µM): 0.675 | relative viability ([14]; first compound 4 µM): 0.352 | relative viability ([15]; first compound 0.04 µM): 0.783 | relative viability ([15]; first compound 0.1265 µM): 0.83 | relative viability ([15]; first compound 0.4 µM): 0.576 | relative viability ([15]; first compound 1.265 µM): 0.431 | relative viability ([15]; first compound 4 µM): 0.537 | relative viability ([16]; first compound 0.04 µM): 0.492 | relative viability ([16]; first compound 0.1265 µM): 0.533 | relative viability ([16]; first compound 0.4 µM): 0.336 | relative viability ([16]; first compound 1.265 µM): 0.0995 | relative viability ([16]; first compound 4 µM): 0.0548 | relative viability ([17]; first compound 0.04 µM): 0.853 | relative viability ([17]; first compound 0.1265 µM): 0.391 | relative viability ([17]; first compound 0.4 µM): 0.787 | relative viability ([17]; first compound 1.265 µM): 0.131 | relative viability ([17]; first compound 4 µM): 0.109
